In patent US10577363B2, “Substituted piperidine compounds” (EPIZYME, INC., priority 2014, dated 2020):
One block for each molecule: values may come before it.

Key:
SMYD3 [1] = biological target: T1, SMYD3 (Homo sapiens (Human), UniProt Q9H7B4); test: SMYD3 biochemical assay (SPA, 3H-SAM methylation of MEKK2 protein substrate)
Summary of the method: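 SPA methyltransferase format: tag-cleaved human SMYD3, insect-cell GST-MEKK2 protein substrate, 3H-SAM donor, 30 min RT enzyme–compound preincubation, 100 uM cold SAM quench.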

SMYD3 [2] = biological target: T1, SMYD3; test: SMYD3 cell assay (Trimethyl-MEKK2 In-Cell Western in 293T/17 cells); assay type: cell-based
Summary of the method: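 In-Cell Western readout: methanol-fixed cells stained for trimethyl-MEKK2 and flag tag, ratio per well normalized to DMSO and background controls.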

[3] = average of n = 1 to n = 50, read-out: SMYD3 Biochem IC50
[4] = average of n = 1 to n = 50, read-out: SMYD3 Cell IC50
[5] = read-out: SMYD3 Biochem IC50 (μM)*

T1 sequence (Q9H7B4 whole entry): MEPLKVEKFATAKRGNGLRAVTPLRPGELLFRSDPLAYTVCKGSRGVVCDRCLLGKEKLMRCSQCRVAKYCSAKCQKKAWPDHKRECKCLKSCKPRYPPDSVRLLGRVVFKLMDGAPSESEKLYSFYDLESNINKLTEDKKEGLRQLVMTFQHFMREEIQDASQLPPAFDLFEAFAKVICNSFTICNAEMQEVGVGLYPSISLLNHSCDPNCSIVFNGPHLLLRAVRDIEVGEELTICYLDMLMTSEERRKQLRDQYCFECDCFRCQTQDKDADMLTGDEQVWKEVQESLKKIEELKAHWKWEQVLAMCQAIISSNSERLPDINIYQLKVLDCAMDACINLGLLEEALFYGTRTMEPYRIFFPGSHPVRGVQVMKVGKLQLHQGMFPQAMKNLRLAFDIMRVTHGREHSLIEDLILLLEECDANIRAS

SMILES: O=C(N[C@H]1C[C@H]2CC[C@@H](C1)N2S(=O)(=O)CCNCCc1ccccc1)c1cc(C2CC2)on1 [compound 705, 5-cyclopropyl-N-((1R,3r,5S)-8-((2-(phenethylamino)ethyl)sulfonyl)-8-azabicyclo[3.2.1]octan-3-yl)isoxazole-3-carboxamide]
IC50 (SMYD3 [1]; [3]): 0.225 µM
IC50 (SMYD3 [2]; [4]): 1.51 µM

SMILES: C[C@@H]1CN(S(=O)(=O)CCCN)CC[C@@H]1NC(=O)c1cc(C2CC2)on1 [compound 387, N-((3R,4S)-1-((3-aminopropyl)sulfonyl)-3-methylpiperidin-4-yl)-5-cyclopropylisoxazole-3-carboxamide]
IC50 (SMYD3 [1]; [5]): 0.07 µM
IC50 (SMYD3 [2]): 0.788 µM

SMILES: CC1CN(S(=O)(=O)N2[C@@H]3CC[C@H]2C[C@@H](NC(=O)c2cc(C4CC4)on2)C3)CCN1C (stereo partly drawn) [compound 660, 5-cyclopropyl-N-((1R,3r,5S)-8-((3,4-dimethylpiperazin-1-yl)sulfonyl)-8-azabicyclo[3.2.1]octan-3-yl)isoxazole-3-carboxamide]
IC50 (SMYD3 [1]; [3]): 0.0667 µM
IC50 (SMYD3 [2]; [4]): 0.414 µM

SMILES: O=C(N[C@H]1C[C@H]2CC[C@@H](C1)N2S(=O)(=O)c1ccc(CN2CCCC2)cc1)c1cc(C2CC2)on1 [compound 953, 5-cyclopropyl-N-((1R,3r,5S)-8-((4-(pyrrolidin-1-ylmethyl)phenyl)sulfonyl)-8-azabicyclo[3.2.1]octan-3-yl)isoxazole-3-carboxamide]
IC50 (SMYD3 [1]; read-out: SMYD3 Biochem IC50*): 0.057 µM
IC50 (SMYD3 [2]; read-out: SMYD3 Cell IC50*): 0.585 µM

SMILES: O=C(N[C@H]1C[C@H]2CC[C@@H](C1)N2S(=O)(=O)N1CCC(NCCN2CCCC2)CC1)c1cc(C2CC2)on1 [compound 922, 5-cyclopropyl-N-((1R,3r,5S)-8-((4-((2-(pyrrolidin-1-yl)ethyl)amino)piperidin-1-yl)sulfonyl)-8-azabicyclo[3.2.1]octan-3-yl)isoxazole-3-carboxamide]
IC50 (SMYD3 [1]; read-out: SMYD3 Biochem IC50*): 0.0281 µM
IC50 (SMYD3 [2]; read-out: SMYD3 Cell IC50*): 0.282 µM

IC50 (SMYD3 [1]; Table 1A, IC50 values are an average of n = 1 to n = 50, read-out: SMYD3 Biochem IC50): 0.00813 µM
IC50 (SMYD3 [2]; Table 1A, IC50 values are an average of n = 1 to n = 50, read-out: SMYD3 Cell IC50): 0.106 µM
SMILES: C[C@H]1C[C@@H](NC(=O)c2cc(C3CC3)on2)CCN1S(=O)(=O)CCCNCc1ccccc1 [Cpd. No. 500, N-((2S,4S)-1-(3-(benzylamino)propylsulfonyl)-2-methylpiperidin-4-yl)-5-cyclopropylisoxazole-3-carboxamide]

SMILES: O=C(N[C@H]1C[C@H]2CC[C@@H](C1)N2S(=O)(=O)N1CCC(NCCc2ccccc2)CC1)c1cc(C2CC2)on1 [compound 791, 5-cyclopropyl-N-((1R,3r,5S)-8-((4-(phenethylamino)piperidin-1-yl)sulfonyl)-8-azabicyclo[3.2.1]octan-3-yl)isoxazole-3-carboxamide]
IC50 (SMYD3 [1]; read-out: SMYD3 Biochem IC50*): 0.00182 µM
IC50 (SMYD3 [2]; read-out: SMYD3 Cell IC50*): 0.0404 µM

IC50 (SMYD3 [1]; [5]): 0.0131 µM
IC50 (SMYD3 [2]; 293T/17 cells, read-out: SMYD3 Cell IC50 (μM)*): 0.181 µM
SMILES: CNCCCS(=O)(=O)N1CC[C@H](NC(=O)c2cc(C3CC3)on2)C[C@@H]1C [compound 444, 5-cyclopropyl-N-((2S,4S)-2-methyl-1-((3-(methylamino)propyl)sulfonyl)piperidin-4-yl)isoxazole-3-carboxamide]

IC50 (SMYD3 [1]; [3]): 0.381 µM
IC50 (SMYD3 [2]; [4]): 1.37 µM
SMILES: CC(C)[C@@H]1CN(S(=O)(=O)N2CC[C@H](NC(=O)c3cc(C4CC4)on3)C[C@@H]2C)CCN1C [compound 728, 5-cyclopropyl-N-((2S,4S)-1-(((R)-3-isopropyl-4-methylpiperazin-1-yl)sulfonyl)-2-methylpiperidin-4-yl)isoxazole-3-carboxamide]

SMILES: CN[C@H]1CC[C@@H](S(=O)(=O)N2[C@@H]3CC[C@H]2C[C@@H](NC(=O)c2cc(C4CC4)on2)C3)CC1 [compound 798, 5-cyclopropyl-N-((1R,3R,5S)-8-(((1s,4S)-4-(methylamino)cyclohexyl)sulfonyl)-8-azabicyclo[3.2.1]octan-3-yl)isoxazole-3-carboxamide]
IC50 (SMYD3 [1]; read-out: SMYD3 Biochem IC50*): 0.00191 µM
IC50 (SMYD3 [2]; read-out: SMYD3 Cell IC50*): 0.0305 µM

IC50 (SMYD3 [1]; read-out: SMYD3 Biochem IC50*): 0.0143 µM
IC50 (SMYD3 [2]; read-out: SMYD3 Cell IC50*): 0.24 µM
SMILES: C[C@@H](NC1CCN(S(=O)(=O)N2CC[C@H](NC(=O)c3cc(C4CC4)on3)C[C@@H]2C)CC1)c1ccccc1 [compound 898, 5-cyclopropyl-N-((2S,4S)-2-methyl-1-((4-(((R)-1-phenylethyl)amino)piperidin-1-yl)sulfonyl)piperidin-4-yl)isoxazole-3-carboxamide]
